The nature of series [1]: Measurement of Log P values by HPLC on reversed phase columns (EEC directive 79/831 Annex V.A8). Type of series: physicochemical. The conditions noted are these: method [a]: LC-UV, acidic range, 0.1% formic acid in water and acetonitrile as eluent. The procedure, abridged:
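Log P derived from retention on reversed-phase columns (EEC directive 79/831 Annex V.A8), LC-UV, acetonitrile gradient 10% to 95% against water containing 0.1% formic acid, 0.001 M ammonium acetate, or 0.1% phosphoric acid; several values per method separated by "+".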

Series [2] deals with Alternaria brassicae. Nature of the series: In vivo preventive test on Alternaria brassicae (leaf spot on radish or cabbage). The conditions noted are these: 500 ppm of active ingredient, preventive spray on radish or cabbage, evaluated 3 to 4 days after inoculation, read-out: efficacy. The gist of the method: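 Protective spray on young radish or cabbage: actives in water diluted from DMSO/acetone/Tween 80, with solvent-only controls. Leaves were challenged after 24 h with a spore suspension, and plants were held at 100% RH, 20 °C for 3 to 4 days.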

Series [3] has as its system Botrytis cinerea. Nature of the series: In vivo preventive test on Botrytis cinerea (grey mould). The conditions noted are these: 500 ppm of active ingredient, preventive spray on gherkin or cabbage, evaluated 4 to 5 days after inoculation, read-out: efficacy. The gist of the method: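 Preventive spray on cabbage or gherkin seedlings, with compound formulated in DMSO/acetone/Tween 80 and water-diluted, preceded spore inoculation by 24 hours. Cabbage was held 4 to 5 days at 20° C., 100% relative humidity; gherkin 4 to 5 days at 17° C., 90% relative humidity.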

For series [4], the system named is Sphaerotheca fuliginea. In words: In vivo preventive test on Sphaerotheca fuliginea (powdery mildew on cucurbits). Conditions: Podosphaera fuliginea, 192 h; 500 ppm of active ingredient; preventive spray on gherkin; evaluated 8 days after inoculation; read-out: efficacy. As to the method: B-4. in vivo preventive test on Sphaerotheca fuliginea (powdery mildew on cucurbits) [table] The active ingredients were made soluble and homogenized in a mixture of Dimethyl sulfoxide/Acetone/Tween® 80 and then diluted in water to the desired concentration. The young plants of gherkin were treated by spraying the active ingredient prepared as described above. Control plants were treated only with an aqueous solution of Acetone/Dimethyl sulfoxide/Tween® 80. After 24 hours, the plants were contaminated by spraying the leaves with an aqueous suspension of Sphaerotheca fuliginea spores. The contaminated gherkin plants were incubated for 8 days at 20° C. and at 70-80% relative humidity.

Series [5] has as its system Colletotrichum lindemuthianum. Nature of the series: In vivo preventive test on Colletotrichum lindemuthianum (leaf spot on bean). Conditions: 168 h, 500 ppm of active ingredient, preventive spray on bean, evaluated 7 days after inoculation, read-out: efficacy. On the procedure: B-5. In Vivo Preventive Test on Colletotrichum lindemuthianum (Leaf Spot on Bean) [table] The active ingredients were made soluble and homogenized in a mixture of Dimethyl sulfoxide/Acetone/Tween® 80 and then diluted in water to the desired concentration. The young plants of bean were treated by spraying the active ingredient prepared as described above. Control plants were treated only with an aqueous solution of Acetone/Dimethyl sulfoxide/Tween® 80. After 24 hours, the plants were contaminated by spraying the leaves with an aqueous suspension of Colletotrichum lindemuthianum spores. The contaminated bean plants were incubated for 24 hours at 20° C. and at 100% relative humidity and then for 6 days at 20° C. and at 90% relative humidity.

The subject of series [6] is Alternaria alternata. Nature of the series: Alternaria alternata in vitro cell test. Type of series: cell-based. The conditions noted are these: 120 h, 20 ppm of active ingredient, liquid culture, 5 days incubation, spectrometric measurement of mycelium growth, read-out: efficacy (inhibition of fungal growth). The procedure, abridged: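 Spectrometric readout of mycelial growth after 5-day incubation gauged compound effects on spore germination and growth of A. alternata in liquid medium. Compounds were delivered in DMSO at ≤1% final. Absorbance was compared with untreated controls to give inhibition.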

In series [7] the test system is Colletotrichum lindemuthianum. In words: B-8. Colletotrichum lindemuthianum in vitro cell test. Conditions: 144 h, 20 ppm of active ingredient, 6 days incubation, liquid culture, absorbance, read-out: efficacy (inhibition of fungal growth). Type of series: cell-based. The gist of the method: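 Liquid-culture germination/growth test: compounds in ≤1% final DMSO were added to spore-containing medium. Fungal growth was quantified spectrophotometrically after 6 days of incubation and expressed as inhibition versus untreated controls.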

Series [8] relates to Botrytis cinerea. Nature of the series: B-11. Botrytis cinerea in vitro cell test. Type of series: cell-based. The conditions noted are these: 144 h, 20 ppm of active ingredient, 6 days incubation, liquid culture, absorbance, read-out: efficacy (inhibition of fungal growth). The procedure, abridged: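 B. cinerea spores were grown in liquid culture with compound (DMSO ≤1% final). Mycelium growth was measured spectrometrically after 6 days, with inhibition taken as absorbance relative to untreated control wells.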

The subject of series [9] is Pyrenophora teres. In words: B-10. Pyrenophora teres in vitro cell test. Format: cell-based. The conditions noted are these: 144 h, 20 ppm of active ingredient, 6 days incubation, liquid culture, absorbance, read-out: efficacy (inhibition of fungal growth). The procedure, abridged:
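Liquid-culture assay on a P. teres spore suspension with compounds added to the medium from DMSO solutions, final DMSO ≤1%. Mycelium growth read spectrometrically after 6 days. Inhibition calculated from absorbance against untreated control wells.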

Structures are written as SMILES.

As a reminder, the chromatographic logP is lipophilicity estimated from chromatographic retention. Higher therefore signals higher lipophilicity. As usually defined, the inhibition is the share of the control response that was lost under treatment.

In the case of `Cc1ccc2c(C(=O)NC[C@H](F)c3ccc(Br)cc3Cl)c(Oc3cccc(C(F)(F)F)c3)nnc2c1` (racemic) [I-046], the chromatographic logP in series [1] (reversed phase HPLC column) is 4.57. Further, the pest or weed control at 500 ppm in series [2], in series [3], in series [4] and in [5] was 90 to 100% each time. Further, the inhibition at 20 ppm in [6] and in series [7] was 90 to 100% throughout.
`COc1cc([C@@H](F)CNC(=O)c2c(Oc3cccc(Cl)c3)nnc3ccccc23)ccc1Cl` (racemic) [I-050] showed a chromatographic logP in series [1] (reversed phase HPLC column) of 3.77. Moreover, the pest or weed control at 500 ppm in [2] lay in the range of 90 to 100%; in series [3], 80 to 89%; in series [5], 80 to 89%. For the same compound, the inhibition at 20 ppm in series [6], in [7] and in series [8] was 90 to 100% throughout.
`Cc1ccc2c(c1)CCC[C@@H]2NC(=O)c1c(Oc2cccc(C(F)(F)F)c2)nnc2ccccc12` (racemic) [I-078]: the chromatographic logP in series [1] (reversed phase HPLC column) came out at 4.47. Further, the pest or weed control at 500 ppm in [2], in series [3] and in series [4] was 90 to 100% throughout. For the same compound, the inhibition at 20 ppm in series [6], in [7], in series [9] and in series [8] was 90 to 100% in each case.
`O=C(NCC(F)c1ccc(Cl)cc1Cl)c1c(Oc2cccc(C(F)(F)F)c2)nnc2c1OCCO2` (racemic) [I-101, N-[2-(2,4-dichlorophenyl)-2-fluoro-ethyl]-3-[3-(trifluoro-methyl)phenoxy]-6,7-dihydro-[1,4]dioxino[2,3-c]pyridazine-4-carboxamide] had a chromatographic logP in series [1] (reversed phase HPLC column) of 3.37. Moreover, the pest or weed control at 500 ppm in series [2], in series [3], in series [4] and in series [5] was 90 to 100% each time. Also, the inhibition at 20 ppm in series [6] fell in the range of 90 to 100%; in series [7] it was 80 to 89%.
With `Cc1ccc([C@H](C)NC(=O)c2c(Oc3cccc(C(F)(F)F)c3)nnc3c2OCCO3)cc1` (racemic) [I-102], in series [1] (reversed phase HPLC column), the chromatographic logP was 3.02. Also, the pest or weed control at 500 ppm in series [2], in series [3], in series [4] and in series [5] was 90 to 100% in each case. In addition, the inhibition at 20 ppm in series [6] and in series [7] was 90 to 100% throughout.
`O=C(NC[C@H](F)c1ccc(Br)cc1Cl)c1c(Oc2cccc(C(F)(F)F)c2)nnc2c1OCCO2` (racemic) [I-105]: in [1] (reversed phase HPLC column), the chromatographic logP is 3.48. Also, the pest or weed control at 500 ppm in series [2], in series [3], in [4] and in series [5] was 90 to 100% each time. Further, the inhibition at 20 ppm in series [6] and in series [7] was 90 to 100% each time.
In series [1] (reversed phase HPLC column), `O=C(NCC(F)(F)c1ccc(Cl)cc1)c1c(Oc2cccc(C(F)F)c2)nnc2ccccc12` [I-034] registered a chromatographic logP of 3.68. Further, the pest or weed control at 500 ppm in series [2] lay within 90 to 100%; in [3] it was 90 to 100%; in series [5] it was 80 to 89%. In addition, the inhibition at 20 ppm in series [6] and in series [7] was 90 to 100% throughout.
On to `O=C(NCC(F)(F)c1ccc(C2=CCCC2)cc1Cl)c1c(Oc2cccc(C(F)(F)F)c2)nnc2ccccc12` [I-073], for which the chromatographic logP in [1] (reversed phase HPLC column) stood at 5.4. Moreover, the pest or weed control at 500 ppm in series [2] is 90 to 100%; in [3], 90 to 100%; in series [5] it was 80 to 89%. Moreover, the inhibition at 20 ppm in series [9] and in series [8] was 90 to 100% throughout.
In series [1], `O=C(NCCc1ccc2c(c1)OCCO2)c1c(Oc2cccc(C(F)(F)F)c2)nnc2ccccc12` [I-086] had a chromatographic logP of 3.42. The pest or weed control at 500 ppm in series [2], in series [3] and in series [5] was 90 to 100% throughout. Also, the inhibition at 20 ppm in [6], in [7], in [9] and in [8] was 90 to 100% throughout.
In the case of `O=C(c1c(Oc2cccc(C(F)(F)F)c2)nnc2ccccc12)N(O)CCc1ccc(Cl)cc1` [I-167], in [1] (reversed phase HPLC column), the chromatographic logP was found to be 3.84. The pest or weed control at 500 ppm in [2] was in the range of 90 to 100%; in series [3], 70 to 79%; in series [5] it was 80 to 89%. The inhibition at 20 ppm in series [7] lay in the range of 80 to 89%; in series [9], 90 to 100%; in [8], 90 to 100%.
Compound `O=C(N[C@H]1CCOc2ccccc21)c1c(Oc2cccc(C(F)(F)F)c2)nnc2ccccc12` [I-172] gave a chromatographic logP in [1] (reversed phase HPLC column) of 3.65. For the same compound, the results for the pest or weed control at 500 ppm in series [2] and in series [4] were 90 to 100% and 80 to 89%, respectively. For the same compound, the inhibition at 20 ppm in series [6], in series [7], in [9] and in series [8] was 90 to 100% throughout.
In turn, `Cc1ccc(C(F)(F)CNC(=O)c2c(Oc3cccc(C(F)(F)F)c3)nnc3cc(F)ccc23)cc1C` [I-175] returned a chromatographic logP in series [1] (reversed phase HPLC column) of 4.62. The pest or weed control at 500 ppm lay in the range of 90 to 100% in series [2] and 80 to 89% in series [5]. In addition, the inhibition at 20 ppm in series [6], in series [7], in series [9] and in series [8] was 90 to 100% in each case.
On to `C#Cc1cccc(Oc2cnc3ccccc3c2C(=O)NCC(F)(F)c2ccc(C)cc2C)c1` [I-215], for which, in series [1] (reversed phase HPLC column), the chromatographic logP came out at 4.13. Moreover, the pest or weed control at 500 ppm in series [2] is 80 to 89%; in series [3], 90 to 100%; in series [4], 90 to 100%. The inhibition at 20 ppm in series [6] was 80 to 89%; in series [7] it was 90 to 100%; in series [9] it was 90 to 100%; in [8], 90 to 100%.
With `C=Cc1cccc(Oc2cnc3ccccc3c2C(=O)NCC(F)(F)c2ccc(C)cc2C)c1` [I-221], the chromatographic logP in [1] (reversed phase HPLC column) is 4.4. In addition, the figures for the pest or weed control at 500 ppm in [2], in [3] and in [5] were 90 to 100%, 90 to 100% and 70 to 79%, respectively. The inhibition at 20 ppm in series [6], in [7], in [9] and in series [8] was 90 to 100% each time.
`Cc1ccc(C(F)(F)CNC(=O)c2c(Oc3cccc(Br)c3F)cnc3ccccc23)c(C)c1` [I-225] had a chromatographic logP in [1] (reversed phase HPLC column) of 4.43. The pest or weed control at 500 ppm is 70 to 79% in series [2], 90 to 100% in series [3] and 90 to 100% in series [4]. For the same compound, the inhibition at 20 ppm in series [6], in series [7], in series [9] and in series [8] was 90 to 100% throughout.
In series [1] (reversed phase HPLC column), `Cc1ccc(C(F)(F)CNC(=O)c2c(Oc3cccc(C(F)(F)F)c3)nnc3c2CCC3(C)C)c(C)c1` [I-232] displayed a chromatographic logP of 4.85. The pest or weed control at 500 ppm is 80 to 89% in series [2], 90 to 100% in series [3] and 90 to 100% in series [4]. Further, the inhibition at 20 ppm lay in the range of 70 to 79% in series [7], 90 to 100% in [9] and 90 to 100% in [8].

The record behind these values is US20230192617A1, “AZABICYCLIC(THIO)AMIDES AS FUNGICIDAL COMPOUNDS” (Bayer CropScience Aktiengesellschaft, priority 2020, published 2023).
